Source: PubChem BioAssay AID1963967 (Molecular Pharmacology Branch, DTP, NCI, 2024)

Test system: 855422-203-R-J1-PDC spheroids with HUVEC/MSC, viability
Assay: Anticancer human tumor 855422-203-R-J1-PDC patient-derived bladder carcinoma cell line growth inhibition [PI3K]
Conditions: for viability, T/C: stronger effect = lower value
From the text: Combinatorial screen of targeted agents with the PI3K inhibitors inavolisib, alpelisib, duvelisib, and copanlisib in multi-cell type tumor spheroids
A high-throughput screen of multi-cell type tumor spheroids was designed to identify active combinations of targeted small molecules and PI3K pathway inhibitors. Complex spheroids include a stromal component modeled by human endothelial cells (HUVEC) and fibroblasts modeled by human mesenchymal stem cells (MSCs). The concentration ranges selected for each drug and investigational agent were based upon clinically achievable concentrations if the clinical Cmax of the agent was known.
Compounds. The drugs and investigational agents: inavolisib (NSC800729), alpelisib (NSC765974), duvelisib (NSC772469), copanlisib (NSC816437), ipatasertib (NSC767898), afuresertib (NSC778305), talazoparib (NSC767125), sapanisertib (NSC764658), selumetinib (NSC741078), tovorafenib (DAY101, NSC766906), vemurafenib (NSC761431), ravoxertinib (NSC781343), sotorasib (NSC818433), MRTX1133 (NSC 836407), abemaciclib (NSC 768073), palbociclib (NSC758247), venetoclax (NSC 766270), SY5609 (NSC837396), enzalutamide (NSC755605), and darolutamide (NSC825331), were obtained from the National Cancer Institute (NCI) Developmental Therapeutics Program Chemical Repository. The FDA-approved anticancer drug set is available from the NCI Developmental Therapeutics Program. […] The stock solutions were prepared in dimethyl sulfoxide (DMSO, Sigma-Aldrich, St. Louis, MO, cat. D2650) at 800-fold the tested concentration and stored at -70 degrees C prior to their use. All drugs and investigational agents were tested over a range starting from a high concentration at or near the clinical Cmax and decreasing in half-log increments. If the clinical Cmax for an agent had not been determined, the highest concentration tested was 10 microM.
Cell Culture. All cells were maintained in an incubator at 37 degrees C and 5% CO2 with 95% humidity. The PDC lines were cultured according to standard operating procedures established by the NCI PDMR (https://pdmr.cancer.gov/sops/default.htm). All PDCs were thawed and cultured in Matrigel-coated flasks prepared with a working solution of 1X Ham's F-12 nutrient mix, without supplementation (Invitrogen, Waltham, MA, cat. 11765054), 100 U/mL penicillin-streptomycin (Invitrogen, cat. 15140122), and 2.5% Matrigel (Corning Inc., Corning, NY, cat. 354248) for the first three passages. The 354836-022-R-J1-PDC, 475296-252-R-J1-PDC, and 997726-040-R-J2-PDC lines were cultured in 6A media, which includes advanced DMEM/F-12 (Thermo Fisher Scientific, cat. 12634028), 10 mM HEPES (Thermo Fisher Scientific, cat. 15630080), 1X GlutaMAX supplement (Thermo Fisher Scientific, cat. 35050061), 0.1 mg/mL primocin (InvivoGen, San Diego, CA, cat. ant-pm-2), 10% defined fetal bovine serum, heat inactivated (HyClone Laboratories Inc., Logan, UT, cat. SH30070.03HI), 50% L-WRN conditioned media (ATCC, cat. CRL-3276), 1.25 mM N-Acetyl-L-cysteine (Sigma-Aldrich, cat. A9165), 10 mM nicotinamide (Sigma-Aldrich, cat. N0636), 1X B-27 supplement (Thermo Fisher Scientific, cat. 17504044), 1X N-2 supplement (Thermo Fisher Scientific, cat. 17502048), and 10 microM Y-27632 dihydrochloride (Tocris Bioscience, Bristol, United Kingdom, cat. 1254). The 624824-186-R-J2-PDC line was cultured in 6C/Colon 1B media, which includes all 6A media components plus 50 ng/mL human EGF recombinant protein (Thermo Fisher Scientific, cat. PHG0311). […]

[1] = curve of first compound, second compound 0.00316 µM
[2] = curve of first compound, second compound 0.01 µM
[3] = curve of first compound, second compound 0.0316 µM
[4] = curve of first compound, second compound 0.1 µM
[5] = curve of first compound, second compound 0.316 µM
[6] = curve of first compound, second compound 1 µM
[7] = second compound 0.00316 µM, first compound 0.0316 µM
[8] = second compound 0.00316 µM, first compound 0.1 µM
[9] = second compound 0.01 µM, first compound 0.0316 µM
[10] = second compound 0.01 µM, first compound 0.1 µM
[11] = second compound 0.0316 µM, first compound 0.0316 µM
[12] = second compound 0.0316 µM, first compound 0.1 µM
[13] = second compound 0.1 µM, first compound 0.0316 µM
[14] = second compound 0.1 µM, first compound 0.1 µM
[15] = second compound 0.316 µM, first compound 0.0316 µM
[16] = second compound 0.316 µM, first compound 0.1 µM
[17] = second compound 1 µM, first compound 0.0316 µM
[18] = second compound 1 µM, first compound 0.1 µM
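Further: agents incubated with spheroids for one week before read-out.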
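Wherever viability, T/C is given: 100% = DMSO vehicle-treated control wells.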

What does the source list for `CC(Nc1ccc2c(c1)OCCn1cc(N3C(=O)OCC3C(F)F)nc1-2)C(N)=O` (stereo unspecified)?
viability, T/C (compound 0.00316 µM): 107% [middle of 8 runs]; viability, T/C (compound 0.01 µM): 104% [middle of 8 runs]; viability, T/C (compound 0.0316 µM): 98.5% [middle of 8 runs]; viability, T/C (compound 0.1 µM): 76.7% [middle of 8 runs]; viability, T/C (compound 0.316 µM): 50.6% [middle of 8 runs]; viability, T/C (compound 1 µM): 35.6% [middle of 8 runs]; IC50 (compound alone, run of 05/08/2023): 300 nM [middle of 8 runs]

What does the source list for `C=CC(=O)N1CCN(c2nc(=O)n(-c3c(C)ccnc3C(C)C)c3nc(-c4c(O)cccc4F)c(F)cc23)C(C)C1` (stereo unspecified) + CC(Nc1ccc2c(c1)OCCn1cc(N3C(=O)OCC3C(F)F)nc1-2)C(N)=O?
IC50 [1]: > 10 µM; IC50 [2]: > 10 µM; IC50 [3]: > 10 µM; IC50 [4]: > 10 µM; IC50 [5]: > 10 µM; IC50 [6]: < 0.0316 µM; viability, T/C [7]: 80.4%; viability, T/C [8]: 95.2%; viability, T/C (second compound 0.00316 µM, first compound 0.316 µM): 116%; viability, T/C (second compound 0.00316 µM, first compound 1 µM): 101%; viability, T/C (second compound 0.00316 µM, first compound 3.16 µM): 122%; viability, T/C (second compound 0.00316 µM, first compound 10 µM): 121%; viability, T/C [9]: 96.1%; viability, T/C [10]: 98.5%; viability, T/C (second compound 0.01 µM, first compound 0.316 µM): 121%; viability, T/C (second compound 0.01 µM, first compound 1 µM): 99.5%; viability, T/C (second compound 0.01 µM, first compound 3.16 µM): 119%; viability, T/C (second compound 0.01 µM, first compound 10 µM): 120%; viability, T/C [11]: 91.5%; viability, T/C [12]: 81.1%; viability, T/C (second compound 0.0316 µM, first compound 0.316 µM): 96.7%; viability, T/C (second compound 0.0316 µM, first compound 1 µM): 90.6%; viability, T/C (second compound 0.0316 µM, first compound 3.16 µM): 99.6%; viability, T/C (second compound 0.0316 µM, first compound 10 µM): 99.5%; viability, T/C [13]: 80.2%; viability, T/C [14]: 66.1%; viability, T/C (second compound 0.1 µM, first compound 0.316 µM): 75.5%; viability, T/C (second compound 0.1 µM, first compound 1 µM): 89%; viability, T/C (second compound 0.1 µM, first compound 3.16 µM): 80.8%; viability, T/C (second compound 0.1 µM, first compound 10 µM): 93.4%; viability, T/C [15]: 54.5%; viability, T/C [16]: 54.4%; viability, T/C (second compound 0.316 µM, first compound 0.316 µM): 53.8%; viability, T/C (second compound 0.316 µM, first compound 1 µM): 75%; viability, T/C (second compound 0.316 µM, first compound 3.16 µM): 73.9%; viability, T/C (second compound 0.316 µM, first compound 10 µM): 68.8%; viability, T/C [17]: 39%; viability, T/C [18]: 30.9%; viability, T/C (second compound 1 µM, first compound 0.316 µM): 39.2%; viability, T/C (second compound 1 µM, first compound 1 µM): 44%; viability, T/C (second compound 1 µM, first compound 3.16 µM): 50.6%; viability, T/C (second compound 1 µM, first compound 10 µM): 38.7%

`CC(C)n1nc(-c2ccc3oc(N)nc3c2)c2c(N)ncnc21` + COc1c(OCCCN2CCOCC2)ccc2c3n(c(=NC(=O)c4cnc(N)nc4)nc12)CCN3 was tested. Which IC50 [1] did it give?
Its IC50 is 0.047 µM.

What about the IC50 [2] of the same compound?
Its IC50 is 0.0313 µM.

What about the IC50 [3] of the same compound?
The IC50 was 0.0106 µM.

And the IC50 [4]?
Its IC50 is < 0.000316 µM.

And the IC50 [5]?
Its IC50 is < 0.000316 µM.

What about the IC50 [6] of the same compound?
The IC50 was < 0.000316 µM.

What about the viability, T/C (second compound 0.00316 µM, first compound 0.000316 µM) of the same compound?
The viability, T/C was 106%.

What about the viability, T/C (second compound 0.00316 µM, first compound 0.001 µM) of the same compound?
Its viability, T/C is 88.3%.

And the viability, T/C (second compound 0.00316 µM, first compound 0.00316 µM)?
Its viability, T/C is 94.4%.

What about the viability, T/C (second compound 0.00316 µM, first compound 0.01 µM) of the same compound?
The viability, T/C was 81.5%.

And the viability, T/C [7]?
The viability, T/C was 72.6%.

What about the viability, T/C [8] of the same compound?
Its viability, T/C is 14.6%.

And the viability, T/C (second compound 0.01 µM, first compound 0.000316 µM)?
Its viability, T/C is 89.6%.

And the viability, T/C (second compound 0.01 µM, first compound 0.001 µM)?
Its viability, T/C is 87.7%.

What about the viability, T/C (second compound 0.01 µM, first compound 0.00316 µM) of the same compound?
The viability, T/C was 90.3%.

And the viability, T/C (second compound 0.01 µM, first compound 0.01 µM)?
Its viability, T/C is 86.5%.

And the viability, T/C [9]?
The viability, T/C was 49.7%.

What about the viability, T/C [10] of the same compound?
Its viability, T/C is 10.4%.

And the viability, T/C (second compound 0.0316 µM, first compound 0.000316 µM)?
The viability, T/C was 72.1%.

And the viability, T/C (second compound 0.0316 µM, first compound 0.001 µM)?
Its viability, T/C is 68.8%.

What about the viability, T/C (second compound 0.0316 µM, first compound 0.00316 µM) of the same compound?
The viability, T/C was 56.8%.

And the viability, T/C (second compound 0.0316 µM, first compound 0.01 µM)?
The viability, T/C was 53%.

And the viability, T/C [11]?
Its viability, T/C is 34.5%.

And the viability, T/C [12]?
Its viability, T/C is 7.16%.

And the viability, T/C (second compound 0.1 µM, first compound 0.000316 µM)?
The viability, T/C was 33.4%.

What about the viability, T/C (second compound 0.1 µM, first compound 0.001 µM) of the same compound?
Its viability, T/C is 30.8%.

And the viability, T/C (second compound 0.1 µM, first compound 0.00316 µM)?
Its viability, T/C is 33.1%.

What about the viability, T/C (second compound 0.1 µM, first compound 0.01 µM) of the same compound?
The viability, T/C was 29.3%.

What about the viability, T/C [13] of the same compound?
Its viability, T/C is 19.1%.

What about the viability, T/C [14] of the same compound?
Its viability, T/C is 4.35%.

What about the viability, T/C (second compound 0.316 µM, first compound 0.000316 µM) of the same compound?
The viability, T/C was 11.2%.

What about the viability, T/C (second compound 0.316 µM, first compound 0.001 µM) of the same compound?
The viability, T/C was 10.2%.

And the viability, T/C (second compound 0.316 µM, first compound 0.00316 µM)?
Its viability, T/C is 9.76%.

What about the viability, T/C (second compound 0.316 µM, first compound 0.01 µM) of the same compound?
The viability, T/C was 9.27%.

What about the viability, T/C [15] of the same compound?
The viability, T/C was 5.64%.

And the viability, T/C [16]?
The viability, T/C was 2.5%.

And the viability, T/C (second compound 1 µM, first compound 0.000316 µM)?
Its viability, T/C is 5.23%.

And the viability, T/C (second compound 1 µM, first compound 0.001 µM)?
Its viability, T/C is 5.41%.

And the viability, T/C (second compound 1 µM, first compound 0.00316 µM)?
The viability, T/C was 4.21%.

What about the viability, T/C (second compound 1 µM, first compound 0.01 µM) of the same compound?
Its viability, T/C is 4.46%.

What about the viability, T/C [17] of the same compound?
Its viability, T/C is 3.47%.

What about the viability, T/C [18] of the same compound?
Its viability, T/C is 1.3%.
